From patent EP4722209A1 (Beijing Shenogen Pharma Group, priority 2023, dated 2024)

molecular target: T1, ERα (Homo sapiens, UniProt P03372); test: ER degradation activity in MCF-7 cells (Western blot, grayscale intensity); type: cell-based; details: 6 hours treatment, 1 nM to 100 nM, concentration required to degrade 50% of the target protein
T1 construct: host or cells: MCF-7
T1 sequence (P03372 1-595): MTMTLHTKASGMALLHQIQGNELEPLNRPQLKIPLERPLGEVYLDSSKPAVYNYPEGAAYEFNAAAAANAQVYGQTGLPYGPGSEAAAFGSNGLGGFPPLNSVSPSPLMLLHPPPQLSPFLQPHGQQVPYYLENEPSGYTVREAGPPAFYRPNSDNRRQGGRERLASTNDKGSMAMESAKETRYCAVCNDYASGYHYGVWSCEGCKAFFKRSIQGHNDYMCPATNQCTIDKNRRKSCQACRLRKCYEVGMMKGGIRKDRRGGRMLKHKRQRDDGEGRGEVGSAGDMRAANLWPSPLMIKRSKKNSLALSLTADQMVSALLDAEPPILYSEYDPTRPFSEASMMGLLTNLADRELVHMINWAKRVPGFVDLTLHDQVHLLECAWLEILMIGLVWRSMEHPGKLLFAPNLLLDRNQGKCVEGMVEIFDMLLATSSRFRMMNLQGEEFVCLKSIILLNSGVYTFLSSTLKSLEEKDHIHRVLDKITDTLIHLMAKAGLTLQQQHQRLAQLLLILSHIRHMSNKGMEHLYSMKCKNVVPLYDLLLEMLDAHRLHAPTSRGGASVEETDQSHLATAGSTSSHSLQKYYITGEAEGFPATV
Description: ERα-positive human breast cancer cells MCF-7 (ATCC, HTB-22) were cultured with EMEM medium (ATCC, catalog number 30-2003) containing 10% fetal bovine serum (Thermo Fisher, catalog number 10099141) and 10 µg/mL bovine insulin in 25 cm^2 or 75 cm^2 plastic tissue culture flasks in a 37 °C incubator with 5% CO2. The cells were passaged 2 to 3 times per week. MCF-7 cells were seeded in 6-well plate at 1×10^6 cells/well with 1.8 mL culture medium per well, and cultured in a 37 °C incubator with 95% air and 5% CO2. After 24 hours, the test compounds were added: the compounds were serially diluted 10-fold in DMSO starting from 10 mM (dissolved in DMSO) to prepare gradient stock solutions. A complete culture medium containing 1% DMSO was prepared for further dilution, temporarily named as the "dilution buffer." Working solutions were prepared by diluting each stock solution with 99 times the volume of dilution buffer, that is, by adding 1 µL of the 10 mM stock solution to 99 µL of the dilution buffer and mixing thoroughly.
Finally, […] of the working solution was added to the cell-seeded culture plate. The final concentration of DMSO in the cell culture medium was 0.2%, and the final concentration of the test compounds ranged from 1 nM to 100 nM. The cells were then incubated at 37 °C for 6 hours.
The culture medium was removed, and the cells were washed twice with ice cold PBS. 1 mL of PBS was added to each well, and the cells were collected into EP tubes using a cell scraper, and centrifuged at 4 °C, 4000 rpm for 5 minutes. PBS was aspirated. Total protein was extracted using the Minute™ Mammalian Tissue/Cell Total Protein Extraction Reagent. The protein concentration was measured using the BCA protein assay kit. 30 µg of protein was taken and mixed with 5× SDS-PAGE loading buffer, boiled for 10 minutes, and cooled. The samples were loaded into wells of a precast gel, with constant voltage at 80 V for 30 minutes, and then the voltage was changed to 120 V after the samples entered the resolving gel. The "sandwich" (sponge - filter paper - gel - membrane - filter paper - sponge) was assembled for Bio-Rad's Transblot. Transfer was performed for 1 hour at 0.3 amp at 4 °C. The sample was blocked with 5% fat-free milk for 1 hour, and incubated with Estrogen Receptor alpha Antibody (Thermo Fisher, catalog number MA5-14104) overnight at 4 °C. The membrane was washed with TBST to remove non-specifically bound antibodies, and then incubated with goat anti-mouse IgG-HRP secondary antibody for 1 hour at room temperature, and was visualized using ECL. The protein degradation level was calculated by measuring the grayscale intensity.
The DC50 values (i.e., the concentration of the test compounds required to degrade 50% of the target protein) were calculated and shown in Table 1. A corresponds to a DC50 value below 10 nM, B corresponds to a DC50 value greater than 10 nM and less than 100 nM, and C corresponds to DC50 values greater than 100 nM. Table 1. The DC50 values of exemplary compounds in MCF-7 cells

Row | SMILES | DC50 [nM]
1 | CC1(C)CC(=C(c2ccc(N3CCN(CC4CN(c5ccc6c(c5)C(=O)N(C5CCC(=O)NC5=O)C6=O)C4)CC3)cc2)c2ccc3[nH]nc(F)c3c2)CC(C)(C)O1 (centres unmarked) [Compound 1] | > 100
2 | CC1(C)CC(=C(c2ccc3[nH]nc(F)c3c2)c2c(F)cc(N3CCN(C4CN(c5ccc6c(c5)C(=O)N(C5CCC(=O)NC5=O)C6=O)C4)CC3)cc2F)CC(C)(C)O1 (centres unmarked) [Compound 3] | > 100
3 | CC1(C)CC(=C(c2ccc(N3CCN(CC4CCN(c5ccc6c(c5)C(=O)N(C5CCC(=O)NC5=O)C6=O)CC4)CC3)nc2)c2ccc3[nH]nc(F)c3c2)CC(C)(C)O1 (centres unmarked) [Compound 4] | > 100
4 | CC1(C)CC(=C(c2ccc(OC3CN(CC4CCN(c5ccc6c(c5)C(=O)N(C5CCC(=O)NC5=O)C6=O)CC4)C3)nc2)c2ccc3[nH]nc(F)c3c2)CC(C)(C)O1 (centres unmarked) [Compound 7] | 10 to 100
5 | CC1(C)CC(=C(c2ccc(OC3CN(CC4CCN(c5ccc6c(c5)C(=O)N(C5CCC(=O)NC5=O)C6=O)CC4)C3)cc2)c2ccc3[nH]nc(F)c3c2)CC(C)(C)O1 (centres unmarked) [Compound 8] | > 100
6 | CC1(C)CC(=C(c2ccc3[nH]nc(F)c3c2)c2c(F)cc(N3CCN(CC4CN(c5ccc6c(c5)C(=O)N(C5CCC(=O)NC5=O)C6=O)C4)CC3)cc2F)CC(C)(C)O1 (centres unmarked) [Compound 9] | > 100
7 | CC1(C)CC(=C(c2ccc3[nH]nc(F)c3c2)c2c(F)cc(N3CCN(C4CCN(c5ccc6c(c5)C(=O)N(C5CCC(=O)NC5=O)C6=O)CC4)CC3)cc2F)CC(C)(C)O1 (centres unmarked) [Compound 10] | > 100
8 | CC1(C)CC(=C(c2ccc3[nH]nc(F)c3c2)c2c(F)cc(N3CCC(N4CCN(c5ccc6c(c5)C(=O)N(C5CCC(=O)NC5=O)C6=O)CC4)CC3)cc2F)CC(C)(C)O1 (centres unmarked) [Compound 11] | < 10
9 | CC1(C)CC(=C(c2ccc3[nH]nc(F)c3c2)c2c(F)cc(N3CCC(CN4CCN(c5ccc6c(c5)C(=O)N(C5CCC(=O)NC5=O)C6=O)CC4)CC3)cc2F)CC(C)(C)O1 (centres unmarked) [Compound 12] | 10 to 100
10 | CC1(C)CC(=C(c2ccc(N3CC(N4CCN(c5ccc6c(c5)C(=O)N(C5CCC(=O)NC5=O)C6=O)CC4)C3)cc2)c2ccc3[nH]nc(F)c3c2)CC(C)(C)O1 (centres unmarked) [Compound 13] | > 100
11 | CC1(C)CC(=C(c2ccc3[nH]nc(F)c3c2)c2c(F)cc(OC3CN(C4CN(c5ccc6c(c5)C(=O)N(C5CCC(=O)NC5=O)C6=O)C4)C3)cc2F)CC(C)(C)O1 (centres unmarked) [Compound 14] | > 100
12 | CC1(C)CC(=C(c2ccc3[nH]nc(F)c3c2)c2c(F)cc(N3CC(CN4CCN(c5ccc6c(c5)C(=O)N(C5CCC(=O)NC5=O)C6=O)CC4)C3)cc2F)CC(C)(C)O1 (centres unmarked) [Compound 15] | 10 to 100
13 | CC1(C)CC(=C(c2ccc(OC3CN(CC4CN(c5ccc6c(c5)C(=O)N(C5CCC(=O)NC5=O)C6=O)C4)C3)cc2)c2ccc3[nH]nc(F)c3c2)CC(C)(C)O1 (centres unmarked) [Compound 32] | > 100
14 | CC1(C)CC(=C(c2ccc(N3CC4C(CN5CCN(c6ccc7c(c6)CN(C6CCC(=O)NC6=O)C7=O)CC5)C4C3)nc2)c2ccc3[nH]nc(F)c3c2)CC(C)(C)O1 (centres unmarked) [Compound 51] | > 100

Further lines, results first:

Row | DC50 [nM] | SMILES
15 | > 100 | CC1(C)CC(=C(c2ccc(OCCN3CCN(c4ccc5c(c4)C(=O)N(C4CCC(=O)NC4=O)C5=O)CC3)cc2)c2ccc3[nH]nc(F)c3c2)CC(C)(C)O1 (centres unmarked) [Compound 16]
16 | > 100 | CC1(C)CC(=C(c2ccc(N3CC(CN4CCN(c5ccc6c(c5)C(=O)N(C5CCC(=O)NC5=O)C6=O)CC4)C3)cc2)c2ccc3[nH]nc(F)c3c2)CC(C)(C)O1 (centres unmarked) [Compound 17]
17 | > 100 | CC1(C)CC(=C(c2ccc(OC3CN(C4CCN(c5ccc6c(c5)C(=O)N(C5CCC(=O)NC5=O)C6=O)CC4)C3)nc2)c2ccc3[nH]nc(F)c3c2)CC(C)(C)O1 (centres unmarked) [Compound 18]
18 | > 100 | CC1(C)CC(=C(c2ccc(OC3CN(C4CN(c5ccc6c(c5)C(=O)N(C5CCC(=O)NC5=O)C6=O)C4)C3)nc2)c2ccc3[nH]nc(F)c3c2)CC(C)(C)O1 (centres unmarked) [Compound 19]
19 | > 100 | CC1(C)CC(=C(c2ccc(OC3CN(C4CCN(c5ccc6c(c5)C(=O)N(C5CCC(=O)NC5=O)C6=O)CC4)C3)cc2)c2ccc3[nH]nc(F)c3c2)CC(C)(C)O1 (centres unmarked) [Compound 20]
20 | > 100 | CC1(C)CC(=C(c2ccc(OC3CN(C4CN(c5ccc6c(c5)C(=O)N(C5CCC(=O)NC5=O)C6=O)C4)C3)cc2)c2ccc3[nH]nc(F)c3c2)CC(C)(C)O1 (centres unmarked) [Compound 21]
21 | > 100 | CC1(C)CC(=C(c2ccc3[nH]nc(F)c3c2)c2c(F)cc(OCCN3CCN(c4ccc5c(c4)C(=O)N(C4CCC(=O)NC4=O)C5=O)CC3)cc2F)CC(C)(C)O1 (centres unmarked) [Compound 23]
22 | 10 to 100 | CC1(C)CC(=C(c2ccc3[nH]nc(F)c3c2)c2c(F)cc(OC3CN(CC4CCN(c5ccc6c(c5)C(=O)N(C5CCC(=O)NC5=O)C6=O)CC4)C3)cc2F)CC(C)(C)O1 (centres unmarked) [Compound 24]
23 | > 100 | CC1(C)CC(=C(c2ccc3[nH]nc(F)c3c2)c2c(F)cc(OC3CN(C4CCN(c5ccc6c(c5)C(=O)N(C5CCC(=O)NC5=O)C6=O)CC4)C3)cc2F)CC(C)(C)O1 (centres unmarked) [Compound 25]
24 | < 10 | CC1(C)CC(=C(c2ccc3[nH]nc(F)c3c2)c2c(F)cc(OC3CN(CC4CN(c5ccc6c(c5)C(=O)N(C5CCC(=O)NC5=O)C6=O)C4)C3)cc2F)CC(C)(C)O1 (centres unmarked) [Compound 26]
25 | 10 to 100 | CC1(C)CC(=C(c2ccc(N3CC(CN4CCN(c5ccc6c(c5)C(=O)N(C5CCC(=O)NC5=O)C6=O)CC4)C3)nc2)c2ccc3[nH]nc(F)c3c2)CC(C)(C)O1 (centres unmarked) [Compound 27]
26 | > 100 | CC1(C)CC(=C(c2ccc(OCCN3CCN(c4ccc5c(c4)C(=O)N(C4CCC(=O)NC4=O)C5=O)CC3)nc2)c2ccc3[nH]nc(F)c3c2)CC(C)(C)O1 (centres unmarked) [Compound 28]
27 | > 100 | CC1(C)CC(=C(c2ccc3[nH]nc(F)c3c2)c2c(F)cc(N3CC(N4CCN(c5ccc6c(c5)C(=O)N(C5CCC(=O)NC5=O)C6=O)CC4)C3)cc2F)CC(C)(C)O1 (centres unmarked) [Compound 29]
28 | > 100 | CC1(C)CC(=C(c2ccc(OC3CN(CC4CN(c5ccc6c(c5)C(=O)N(C5CCC(=O)NC5=O)C6=O)C4)C3)nc2)c2ccc3[nH]nc(F)c3c2)CC(C)(C)O1 (centres unmarked) [Compound 30]
29 | < 10 | CC1(C)CC(=C(c2ccc(N3CCC(CN4CCN(c5ccc6c(c5)CN(C5CCC(=O)NC5=O)C6=O)CC4)CC3)nc2)c2ccc3[nH]ncc3c2)CC(C)(C)O1 (centres unmarked) [Compound 39]
30 | > 100 | CC1(C)CC(=C(c2ccc(N3CC(CN4CCN(c5ccc6c(c5)CN(C5CCC(=O)NC5=O)C6=O)CC4)C3)nc2)c2ccc3[nH]nc(F)c3c2)CC(C)(C)O1 (centres unmarked) [Compound 40]
31 | 10 to 100 | CC1(C)CC(=C(c2ccc(N3CCC(CN4CCN(c5ccc6c(c5)CN(C5CCC(=O)NC5=O)C6=O)CC4)CC3)cc2)c2ccc3[nH]nc(F)c3c2)CC(C)(C)O1 (centres unmarked) [Compound 41]
32 | > 100 | CC1(C)CC(=C(c2ccc(N3CCC4(CC3)CC(N3CC5(CN(c6ccc7c(c6)CN(C6CCC(=O)NC6=O)C7=O)C5)C3)C4)nc2)c2ccc3[nH]nc(F)c3c2)CC(C)(C)O1 (centres unmarked) [Compound 43]
33 | 10 to 100 | CN(CC1CCN(c2ccc(C(=C3CC(C)(C)OC(C)(C)C3)c3ccc4[nH]nc(F)c4c3)cn2)CC1)C1CCN(c2ccc3c(c2)CN(C2CCC(=O)NC2=O)C3=O)CC1 (centres unmarked) [Compound 45]
34 | > 100 | CC1(C)CC(=C(c2ccc(N3CCC4(CC(N5CCN(c6ccc7c(c6)CN(C6CCC(=O)NC6=O)C7=O)CC5)C4)C3)nc2)c2ccc3[nH]nc(F)c3c2)CC(C)(C)O1 (centres unmarked) [Compound 49]
35 | > 100 | CC1(C)CC(=C(c2ccc(N3CC4(CC(N5CCN(c6ccc7c(c6)CN(C6CCC(=O)NC6=O)C7=O)CC5)C4)C3)nc2)c2ccc3[nH]nc(F)c3c2)CC(C)(C)O1 (centres unmarked) [Compound 50]
